Molecular target: T1, Human OAT1 (SLC22A6) (Homo sapiens, UniProt Q4U2R8)
T1 construct: host or cells: HEK-293
T1 sequence (Q4U2R8 1-563): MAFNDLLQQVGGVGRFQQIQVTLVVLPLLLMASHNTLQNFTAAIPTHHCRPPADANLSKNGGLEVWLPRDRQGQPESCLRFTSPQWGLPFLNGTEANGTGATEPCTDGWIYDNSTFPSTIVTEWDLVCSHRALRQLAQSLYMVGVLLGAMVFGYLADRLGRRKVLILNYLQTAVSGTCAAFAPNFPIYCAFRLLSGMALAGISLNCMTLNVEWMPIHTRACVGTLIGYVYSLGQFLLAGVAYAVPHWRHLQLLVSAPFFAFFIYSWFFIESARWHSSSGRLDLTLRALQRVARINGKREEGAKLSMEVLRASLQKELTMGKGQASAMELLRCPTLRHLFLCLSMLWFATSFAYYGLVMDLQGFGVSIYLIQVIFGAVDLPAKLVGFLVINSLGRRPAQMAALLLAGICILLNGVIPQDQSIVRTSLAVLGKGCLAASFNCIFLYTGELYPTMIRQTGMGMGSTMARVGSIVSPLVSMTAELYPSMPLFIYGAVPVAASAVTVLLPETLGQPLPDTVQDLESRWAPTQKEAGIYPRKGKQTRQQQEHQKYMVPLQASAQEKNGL
Test: OAT1-mediated cellular uptake in overexpressing HEK-293 cells
Format: cell-based
Procedure: Cells were grown in DMEM (Gibco 4196, high glucose, without sodium pyruvate) supplemented with MEM non-essential amino acids and 10% fetal bovine serum. Cells were re-fed with fresh medium after attachment (4–6 h post-seeding). Cell were plated at a density of 4 × 10^5/well in 24-well plates coated with poly-D-lysine. Transporter assays were conducted in 400 µL of HBSS supplemented with 10 mM Hepes, pH 7.4
The known probe substrates used as positive controls were 3 μM chlorothiazide for OAT1, 2 μM estrone-3-sulfate for OAT3, 10 µM [^3H]gabapentin for LAT1, 50 µM [^3H]Gly-Sar for PepT1, 500 µM thiophene-2-glyoxylic acid for MCT1. The known inhibitors used as controls for each transporter were 100 μM diclofenac for OAT1 and OAT3, 10 µM JPH203 for LAT1 and 200 µM losartan for PepT1. All incubations were in triplicate and contained 1% (OAT1 and OAT3) or 0.5% DMSO (LAT, PepT1 and MCT1). The duration of uptake was 5 min for OAT1 and OAT3, 3 min for LAT1 and PepT1 and 1 min for MCT1. Assays were performed at 37 °C with no shaking, except MCT1 at room temperature. To determine uptake due to the overexpressed transporter per se, uptake was taken as the difference between accumulation between transfected and nontransfected cells in parallel experiments at the same concentration and time. To terminate uptake the plate was placed on ice and cells washed twice with ice-cold transport buffer. […]

Vmax OAT1 uptake (Michaelis-Menten fit): 173
substrate of OAT1 (uptake) (pH 7.4, 5 min): substrate
SMILES: CC(=O)N[C@@H](CC(C)C)C(=O)O [N-acetyl-L-leucine]
